The values below are quoted from earlier work in patent publication US7588892B2, “Reagent sets and gene signatures for renal tubule injury” (Entelos, Inc., priority 2004, dated 2009).

For this data set, the system named is renal tubules. Particulars: rats, daily dose, route and vehicle of Table 2, day 5/7; absence of nephrotoxicity asserted from PDR and published literature; no histological injury on day 5/7; cited from earlier work.
Take `COc1ccc2cc(CC(=O)O)ccc2c1`: the “Class (nephrotoxic / non-nephrotoxic training label)” value is “Non-nephrotoxic”.
On to `CC(C)CN(C[C@@H](O)[C@H](Cc1ccccc1)NC(=O)O[C@H]1CCOC1)S(=O)(=O)c1ccc(N)cc1`, for which the “Class (nephrotoxic / non-nephrotoxic training label)” value is given as “Non-nephrotoxic”.
In the case of `CCOc1nc2cccc(C(=O)O)c2n1Cc1ccc(-c2ccccc2-c2nnn[nH]2)cc1`, the “Class (nephrotoxic / non-nephrotoxic training label)” value is reported as “Non-nephrotoxic”.
As for `CCOC(=O)[C@H](CCc1ccccc1)N[C@@H](C)C(=O)N1[C@H](C(=O)O)C[C@@H]2CCC[C@@H]21`, the “Class (nephrotoxic / non-nephrotoxic training label)” value was “Non-nephrotoxic”.
Consider `C[C@H]1O[C@H](O[C@H]2[C@H](O)[C@@H](O)[C@@H](O[C@H]3[C@H](O)[C@@H](O)C(O)O[C@@H]3CO)O[C@@H]2CO)[C@H](O)[C@@H](O)[C@@H]1N[C@H]1C=C(CO)[C@@H](O)[C@H](O)[C@H]1O` (some centres unmarked) [ACARBOSE], for which the “Class (nephrotoxic / non-nephrotoxic training label)” value is on record as “Non-nephrotoxic”.
In the case of `CC(=O)Oc1ccccc1C(=O)O` [ASPIRIN], the “Class (nephrotoxic / non-nephrotoxic training label)” value is on record as “Non-nephrotoxic”.
Regarding `Cn1cnc([N+](=O)[O-])c1Sc1ncnc2nc[nH]c12` [AZATHIOPRINE], the “Class (nephrotoxic / non-nephrotoxic training label)” value is given as “Non-nephrotoxic”.
On to `CNCCc1ccccn1` [BETAHISTINE], for which the “Class (nephrotoxic / non-nephrotoxic training label)” value is reported as “Non-nephrotoxic”.
As to `CC(C)(c1ccc(O)cc1)c1ccc(O)cc1` [BISPHENOL A], the “Class (nephrotoxic / non-nephrotoxic training label)” value is given as “Non-nephrotoxic”.
In the case of `Oc1c(Cl)cc(Cl)cc1Sc1cc(Cl)cc(Cl)c1O` [BITHIONOL], the “Class (nephrotoxic / non-nephrotoxic training label)” value is “Non-nephrotoxic”.
`C[C@H](CS)C(=O)N1CCC[C@H]1C(=O)O` [CAPTOPRIL]: the “Class (nephrotoxic / non-nephrotoxic training label)” value is given as “Non-nephrotoxic”.
For `Cc1ccc(-c2cc(C(F)(F)F)nn2-c2ccc(S(N)(=O)=O)cc2)cc1` [CELECOXIB], the “Class (nephrotoxic / non-nephrotoxic training label)” value is listed as “Non-nephrotoxic”.
Turning to `CCOC(=O)C(C)(C)Oc1ccc(Cl)cc1` [CLOFIBRATE], the “Class (nephrotoxic / non-nephrotoxic training label)” value is given as “Non-nephrotoxic”.
Turning to `CCO` [ETHANOL], the “Class (nephrotoxic / non-nephrotoxic training label)” value is “Non-nephrotoxic”.
`CC12CCC(CC1)C(C)(C)O2` [EUCALYPTOL]: the “Class (nephrotoxic / non-nephrotoxic training label)” value is on record as “Non-nephrotoxic”.
Regarding `CC(C)OC(=O)C(C)(C)Oc1ccc(C(=O)c2ccc(Cl)cc2)cc1` [FENOFIBRATE], the “Class (nephrotoxic / non-nephrotoxic training label)” value is “Non-nephrotoxic”.
Regarding `CC(C)n1c(/C=C/C(O)CC(O)CC(=O)O)c(-c2ccc(F)cc2)c2ccccc21` (centres unmarked) [FLUVASTATIN], the “Class (nephrotoxic / non-nephrotoxic training label)” value is listed as “Non-nephrotoxic”.
Turning to `CNC[C@H](O)[C@@H](O)[C@H](O)[C@H](O)CO.CNC[C@H](O)[C@@H](O)[C@H](O)[C@H](O)CO.O=C([O-])CN(CCN(CC(=O)[O-])CC(=O)O)CCN(CC(=O)[O-])CC(=O)O.[Gd+3]` [GADOPENTETATE DIMEGLUMINE], the “Class (nephrotoxic / non-nephrotoxic training label)” value is on record as “Non-nephrotoxic”.
Turning to `Cc1ccc(C)c(OCCCC(C)(C)C(=O)O)c1` [GEMFIBROZIL], the “Class (nephrotoxic / non-nephrotoxic training label)” value is “Non-nephrotoxic”.
As to `Cc1ccc(S(=O)(=O)NC(=O)NN2CC3CCCC3C2)cc1` (centres unmarked) [GLICLAZIDE], the “Class (nephrotoxic / non-nephrotoxic training label)” value is “Non-nephrotoxic”.
With `NCC(=O)O` [GLYCINE], the “Class (nephrotoxic / non-nephrotoxic training label)” value is on record as “Non-nephrotoxic”.
Consider `Cc1oncc1C(=O)Nc1ccc(C(F)(F)F)cc1` [LEFLUNOMIDE], for which the “Class (nephrotoxic / non-nephrotoxic training label)” value is listed as “Non-nephrotoxic”.
In the case of `CCC[C@@H]1C[C@@H](C(=O)N[C@@H]([C@H]2O[C@H](SC)[C@H](O)[C@@H](O)[C@H]2O)[C@@H](C)O)N(C)C1` [LINCOMYCIN], the “Class (nephrotoxic / non-nephrotoxic training label)” value was “Non-nephrotoxic”.
As for `CC[C@H](C)C(=O)O[C@H]1C[C@@H](C)C=C2C=C[C@H](C)[C@H](CC[C@@H]3C[C@@H](O)CC(=O)O3)[C@H]21` [LOVASTATIN], the “Class (nephrotoxic / non-nephrotoxic training label)” value is listed as “Non-nephrotoxic”.
On to `CN(C)C=O` [N,N-DIMETHYLFORMAMIDE], for which the “Class (nephrotoxic / non-nephrotoxic training label)” value was “Non-nephrotoxic”.
For the compound `CCN(CC)N=O` [N-NITROSODIETHYLAMINE], the “Class (nephrotoxic / non-nephrotoxic training label)” value is given as “Non-nephrotoxic”.
